Assay results: ChEMBL document CHEMBL5230081, “Battle against Vancomycin-Resistant Bacteria: Recent Developments in Chemical Strategies” (J Med Chem, 2019)
≈ marks a conversion by molar mass, not a printed value.

Tests used:
Type in all cases: functional
Enterococcus faecalis = assay: Antimicrobial activity against Vancomycin - resistant Enterococcus faecalis assessed as inhibition of bacterial growth
Enterococcus faecium = assay: Antimicrobial activity against Vancomycin-resistant (Van A) Enterococcus faecium ATCC 51559 assessed as reduction in microbial growth
Staphylococcus aureus [1] = assay: Antimicrobial activity against Vancomycin-resistant Staphylococcus aureus incubated for 20 hrs by broth dilution method
Staphylococcus aureus [2] = assay: Antibacterial activity against Vancomycin-intermediate Staphylococcus aureus NRS1 assessed as bacterial growth inhibition
[3] = Enterococcus faecium, ATCC 51559, read-out: MIC

Row | SMILES | MIC (Enterococcus faecalis) | MIC (Enterococcus faecium) | MIC (Enterococcus faecium; [3]) | further results
1 | CN[C@H](CC(C)C)C(=O)N[C@H]1C(=O)N[C@@H](CC(N)=O)C(=O)N[C@H]2C(=S)N[C@H]3C(=O)N[C@H](C(=O)N[C@H](C(=O)O)c4cc(O)cc(O)c4-c4cc3ccc4O)[C@H](O)c3ccc(c(Cl)c3)Oc3cc2cc(c3O[C@@H]2O[C@H](CO)[C@@H](O)[C@H](O)[C@H]2O[C@H]2C[C@](C)(NCc3ccc(-c4ccc(Cl)cc4)cc3)[C@H](O)[C@H](C)O2)Oc2ccc(cc2Cl)[C@H]1O | 2 µg/mL | 2 µg/mL | 4 µg/mL | 
2 | CN[C@H](CC(C)C)C(=O)N[C@H]1C(=O)N[C@@H](CC(N)=O)C(=O)N[C@H]2C(=N)N[C@H]3C(=O)N[C@H](C(=O)N[C@H](C(=O)O)c4cc(O)cc(O)c4-c4cc3ccc4O)[C@H](O)c3ccc(c(Cl)c3)Oc3cc2cc(c3O[C@@H]2O[C@H](CO)[C@@H](O)[C@H](O)[C@H]2O[C@H]2C[C@](C)(NCc3ccc(-c4ccc(Cl)cc4)cc3)[C@H](O)[C@H](C)O2)Oc2ccc(cc2Cl)[C@H]1O | 0.005 µg/mL | 0.06 µg/mL | 0.005 µg/mL | 
3 | CN[C@H](CC(C)C)C(=O)N[C@H]1C(=O)N[C@@H](CC(N)=O)C(=O)N[C@H]2C(=O)N[C@H]3C(=O)N[C@H](C(=O)N[C@H](C(=O)NCCCNCCCCCCCCNCCCNC(=O)[C@H]4NC(=O)[C@H]5NC(=O)[C@H](NC(=O)[C@@H]6NC(=O)[C@H](CC(N)=O)NC(=O)[C@H](NC(=O)[C@@H](CC(C)C)NC)[C@H](O)c7ccc(c(Cl)c7)Oc7cc6cc(c7O[C@@H]6O[C@H](CO)[C@@H](O)[C@H](O)[C@H]6O[C@H]6C[C@](C)(N)[C@H](O)[C@H](C)O6)Oc6ccc(cc6Cl)[C@H]5O)c5ccc(O)c(c5)-c5c(O)cc(O)cc54)c4cc(O)cc(O)c4-c4cc3ccc4O)[C@H](O)c3ccc(c(Cl)c3)Oc3cc2cc(c3O)Oc2ccc(cc2Cl)[C@H]1O |  | 0.1 µM | 48 µM | 
4 | CN[C@H](CC(C)C)C(=O)N[C@H]1C(=O)N[C@@H](CC(N)=O)C(=O)N[C@H]2C(=O)N[C@H]3C(=O)N[C@H](C(=O)N[C@H](C(=O)NCCCCCCNC(=O)[C@H]4NC(=O)[C@H]5NC(=O)[C@H](NC(=O)[C@@H]6NC(=O)[C@H](CC(N)=O)NC(=O)[C@H](NC(=O)[C@@H](CC(C)C)NC)[C@H](O)c7ccc(c(Cl)c7)Oc7cc6cc(c7O[C@@H]6O[C@H](CO)[C@@H](O)[C@H](O)[C@H]6O[C@H]6C[C@](C)(N)[C@H](O)[C@H](C)O6)Oc6ccc(cc6Cl)[C@H]5O)c5ccc(O)c(c5)-c5c(O)cc(O)cc54)c4cc(O)cc(O)c4-c4cc3ccc4O)[C@H](O)c3ccc(c(Cl)c3)Oc3cc2cc(c3O[C@@H]2O[C@H](CO)[C@@H](O)[C@H](O)[C@H]2O[C@H]2C[C@](C)(N)[C@H](O)[C@H](C)O2)Oc2ccc(cc2Cl)[C@H]1O |  |  |  | MIC (Staphylococcus aureus [1]): 32 µM
5 | CCCCCCCCCC(=O)O[C@H]1[C@H](O)[C@@H](O[C@H]2C[C@](C)(N)[C@H](O)[C@H](C)O2)[C@H](Oc2c3cc4cc2Oc2ccc(cc2Cl)[C@@H](O)[C@@H](NC(=O)[C@@H](CC(C)C)NC)C(=O)N[C@@H](CC(N)=O)C(=O)N[C@H]4C(=O)N[C@H]2C(=O)N[C@H](C(=O)N[C@H](C(=O)O)c4ccccc4-c4cccc2c4)[C@H](O)c2ccc(c(Cl)c2)O3)O[C@@H]1CO |  |  | 16 µg/mL | 
6 | CN[C@H]1C(=O)N[C@@H]2Cc3ccc(cc3)Oc3cc4cc(c3O[C@@H]3O[C@H](C(=O)O)[C@@H](O)[C@H](O)[C@H]3NC(=O)CCCCCCCCC(C)C)Oc3ccc(cc3Cl)[C@@H](O)[C@@H]3NC(=O)[C@H](NC(=O)[C@@H]4NC(=O)[C@@H](NC2=O)c2cc(cc(O)c2Cl)Oc2cc1ccc2O)c1ccc(O)c(c1)-c1c(O[C@H]2O[C@H](CO)[C@@H](O)[C@H](O)[C@@H]2O)cc(O)cc1[C@@H](C(=O)NCCCN(C)C)NC3=O [DALBAVANCIN] |  | 0.1 µg/mL |  | 
7 | CN[C@H](CC(C)C)C(=O)N[C@H]1C(=O)N[C@@H](CC(N)=O)C(=O)N[C@H]2C(=O)N[C@H]3C(=O)N[C@H](C(=O)N[C@H](C(=O)O)c4cc(OC)cc(OC)c4-c4cc3ccc4OC)[C@H](O)c3ccc(c(Cl)c3)Oc3cc2cc(c3OC)Oc2ccc(cc2Cl)[C@H]1O |  | 1.6 µg/mL |  | 
8 | CN[C@H](CC(C)C)C(=O)N[C@H]1C(=O)N[C@@H](CC(N)=O)C(=O)N[C@H]2C(=O)N[C@H]3C(=O)N[C@H](C(=O)N[C@H](C(=O)O)c4cc(O)cc(O)c4-c4cc3ccc4O)[C@H](O)c3ccc(c(Cl)c3)Oc3cc2cc(c3O[C@@H]2O[C@H](CO)[C@@H](O)[C@H](O)[C@H]2O[C@H]2C[C@](C)(N)[C@H](O)[C@H](C)O2)Oc2ccc(cc2/C=C/c2ccc(-c3ccccc3)cc2)[C@H]1O |  | 2 µg/mL |  | 
9 | CC(=O)OCC1=C(C(=O)O)N2C(=O)[C@@H](NC(=O)CCC[C@@H](N)C(=O)O)[C@H]2SC1 [CEPHALOSPORIN C] | < 0.5 µg/mL |  |  | MIC (Staphylococcus aureus [1]): 1 µg/mL
10 | CN[C@H](CC(C)C)C(=O)N[C@H]1C(=O)N[C@@H](CC(N)=O)C(=O)N[C@H]2C(=O)N[C@H]3C(=O)N[C@H](C(=O)N[C@H](C(=O)O)c4ccccc4-c4cccc3c4)[C@H](O)c3ccc(c(Cl)c3)Oc3cc2cc(c3O[C@@H]2O[C@H](CO)[C@@H](O)[C@H](O)[C@H]2O[C@H]2C[C@](C)(NCc3ccc(OCCCN4C(=O)[C@@H]5[C@H](C4=O)[C@@H](C)C[C@H]5/C=C/c4ccccc4)cc3)[C@H](O)[C@H](C)O2)Oc2ccc(cc2Cl)[C@H]1O |  | 2 µg/mL | 31 µg/mL | 
11 | CN[C@H](CC(C)C)C(=O)N[C@H]1C(=O)N[C@@H](CC(N)=O)C(=O)N[C@H]2C(=N)N[C@H]3C(=O)N[C@H](C(=O)N[C@H](C(=O)O)c4cc(O)cc(O)c4-c4cc3ccc4O)[C@H](O)c3ccc(c(Cl)c3)Oc3cc2cc(c3O[C@@H]2O[C@H](CO)[C@@H](O)[C@H](O)[C@H]2O[C@H]2C[C@](C)(N)[C@H](O)[C@H](C)O2)Oc2ccc(cc2Cl)[C@H]1O | 0.5 µg/mL |  | 0.5 µg/mL | 
12 | C=C1NC(=O)[C@H]([C@@H](C)CC)NC(=O)[C@@H](NC(=O)/C(=C/C)NC(=O)[C@@H](N)[C@@H](C)CC)CSC[C@@H](C(=O)N[C@H]2C(=O)N3CCC[C@H]3C(=O)NCC(=O)N[C@H](C(=O)N[C@@H](CCCCN)C(=O)NCCCn3cc(CCC(=O)NCCCOCCOCCOCCCNC(=O)[C@H]4NC(=O)[C@H]5NC(=O)[C@H](NC(=O)[C@@H]6NC(=O)[C@H](CC(N)=O)NC(=O)[C@H](NC(=O)[C@@H](CC(C)C)NC)[C@H](O)c7ccc(c(Cl)c7)Oc7cc6cc(c7O[C@@H]6O[C@H](CO)[C@@H](O)[C@H](O)[C@H]6O[C@H]6C[C@](C)(N)[C@H](O)[C@H](C)O6)Oc6ccc(cc6Cl)[C@H]5O)c5ccc(O)c(c5)-c5c(O)cc(O)cc54)nn3)CS[C@@H]2C)NC(=O)[C@H]([C@@H](C)CC)NC1=O | 2.3 µM |  |  | 
13 | CN[C@H](CC(C)C)C(=O)N[C@H]1C(=O)N[C@@H](CC(N)=O)C(=O)N[C@H]2C(=O)N[C@H]3C(=O)N[C@H](C(=O)N[C@H](C(=O)O)c4cc(O)cc(O)c4-c4cc3ccc4O)[C@H](O)c3ccc(c(Cl)c3)Oc3cc2cc(c3O[C@@H]2O[C@H](CO)[C@@H](O)[C@H](O)[C@H]2O[C@H]2C[C@](C)(NCc3cccc(OCC/C=C\CCOc4cccc(CN[C@@]5(C)C[C@H](O[C@H]6[C@H](Oc7c8cc9cc7Oc7ccc(cc7Cl)[C@@H](O)[C@@H](NC(=O)[C@@H](CC(C)C)NC)C(=O)N[C@@H](CC(N)=O)C(=O)N[C@H]9C(=O)N[C@H]7C(=O)N[C@H](C(=O)N[C@H](C(=O)O)c9cc(O)cc(O)c9-c9cc7ccc9O)[C@H](O)c7ccc(c(Cl)c7)O8)O[C@H](CO)[C@@H](O)[C@@H]6O)O[C@@H](C)[C@H]5O)c4)c3)[C@H](O)[C@H](C)O2)Oc2ccc(cc2Cl)[C@H]1O |  |  |  | MIC (Staphylococcus aureus [2]): 1 µg/mL (≈ 0.313 µM)
14 | CCCCCCCCCC(=O)OC[C@H]1O[C@@H](Oc2c3cc4cc2Oc2ccc(cc2Cl)[C@@H](O)[C@@H](NC(=O)[C@@H](CC(C)C)NC)C(=O)N[C@@H](CC(N)=O)C(=O)N[C@H]4C(=O)N[C@H]2C(=O)N[C@H](C(=O)N[C@H](C(=O)O)c4ccccc4-c4cccc2c4)[C@H](O)c2ccc(c(Cl)c2)O3)[C@H](O[C@H]2C[C@](C)(N)[C@H](O)[C@H](C)O2)[C@@H](O)[C@@H]1O |  | 1 µg/mL |  | 
15 | CN[C@@H](CC(C)C)C(=O)N[C@@H]1C(=O)N[C@H](CC(N)=O)C(=O)N[C@@H]2C(=O)N[C@@H]3C(=O)N[C@@H](C(=O)N[C@@H](C(=O)NCCCSSCCCNC(=O)[C@H]4NC(=O)[C@H]5NC(=O)[C@H](NC(=O)[C@@H]6NC(=O)[C@H](CC(N)=O)NC(=O)[C@H](NC(=O)[C@@H](CC(C)C)NC)[C@H](O)c7ccc(c(Cl)c7)Oc7cc6cc(c7O[C@@H]6O[C@H](CO)[C@@H](O)[C@H](O)[C@H]6O[C@H]6C[C@](C)(N)[C@H](O)[C@H](C)O6)Oc6ccc(cc6Cl)[C@H]5O)c5ccc(O)c(c5)-c5c(O)cc(O)cc54)c4cc(O)cc(O)c4-c4cc3ccc4O)[C@@H](O)c3ccc(c(Cl)c3)Oc3cc2cc(c3O[C@@H]2O[C@H](CO)[C@@H](O)[C@H](O)[C@H]2O[C@H]2C[C@](C)(N)[C@H](O)[C@H](C)O2)Oc2ccc(cc2Cl)[C@@H]1O |  |  |  | MIC (Staphylococcus aureus [1]): 15 µM
16 | CCCCCCCCCCCCCC(=O)N[C@@H](CCCCN)C(=O)N[C@@H](CCCCN)C(=O)N[C@@H](CCCCN)C(=O)NC(CCCCNC(=O)[C@H]1NC(=O)[C@H]2NC(=O)[C@H](NC(=O)[C@@H]3NC(=O)[C@H](CC(N)=O)NC(=O)[C@H](NC(=O)[C@@H](CC(C)C)NC)[C@H](O)c4ccc(c(Cl)c4)Oc4cc3cc(c4O[C@@H]3O[C@H](CO)[C@@H](O)[C@H](O)[C@H]3O[C@H]3C[C@](C)(N)[C@H](O)[C@H](C)O3)Oc3ccc(cc3Cl)[C@H]2O)c2ccc(O)c(c2)-c2c(O)cc(O)cc21)C(=O)O (stereo partly specified) |  | 0.125 µg/mL |  | MIC (Staphylococcus aureus [2]): 0.03 µg/mL (≈ 0.0138 µM); MIC (Staphylococcus aureus [1]): 0.05 µg/mL
